# Results: US11298569B2 (priority 2016, dated 2022)
# Like-named read-outs stand apart in the source and are kept apart here.
# What was measured:
# [1] = test system: Cx3cr1-cre::Panx1^flx/flx mice; assay: Naloxone-precipitated morphine withdrawal behaviours in mice; format: in vivo, mouse; conditions: for morphine withdrawal: morphine-dependent Panx1-expressing mice, 15 minutes prior to naloxone
# Experimental: (§1) Control rats and mice received saline and were challenged with naloxone on day 5. […] Jumping, teeth chattering, wet-dog shakes, headshakes, and grooming behaviors were evaluated at 5-min intervals for a total test period of 30 minutes and a standardized score of 0 to 3 was assigned to each behavior. Allodynia, piloerection, salivation, ejaculation, and tremorsitwitchina were also evaluated, with one point given to the presence of the behavior during each 5-min interval. All signs were counted and compiled to yield a cumulative withdrawal score. Rats and mice were weighed before and after naloxone challenge to calculate weight loss. In all behavioral studies, experimenters were blind to the drug treatments and genetic profile of rats and mice.
# (§2) All control animals received intrathecal saline.
# [2] = target: T1, Panx1 (Mus musculus, UniProt Q9JIP4); format: cell-based; conditions: for naloxone potentiation of Panx1 activation (YO-PRO-3 dye uptake): morphine-treated BV-2 microglial cultures, 30 minutes post-BzATP; for BzATP-evoked YO-PRO-1 uptake: morphine-treated microglia, BzATP 150 μM, drug 10 μM
# T1 construct: endogenous in cells; host or cells: BV-2 microglia
# Experimental: (§3) BV2 microglia were maintained in DMEM media (Gibco) containing 10% FBS and 1% Pen-Strep at 37° C. with 5% CO2.
# Following a 5-min baseline recording, cells were stimulated with BzATP (150 μM, Sigma) and dye-uptake was recorded for 30 minutes. Cell viability was assessed immediately after 30 minute recording by application of ionomycin (1 μM, Sigma). YO-PRO-1 dye fluorescent emission (491/509) or YO-PRO-3 dye fluorescent emission (612/631) was detected at 37° C. using a FilterMax F5 plate reader (Molecular Devices). Drugs used include ^10panx, ^scrpanx, and naloxone, all of which were used at 10 μM. Drugs were bath applied in YO-PRO-1 dye and incubated at 37° C. for 10 minutes prior to baseline recording. Fluorescent emission at 30 minutes post BzATP application was calculated as percent change from baseline. Representative images of BV-2 YO-PRO-1 dye uptake were taken at room temperature using an inverted microscope (Nikon Eclipse Ti C1S1 Spectral Confocal) with images take at 5 minute intervals for 30 minutes using EasyRatioPro software (PTI). To assess Panx1 function in Cx3cr1::Panx1^flx/flx adult microglia, neuron-glia mixture culture was isolated from adult mice treated with tamoxifen or vehicle for 5 days, then plated in DMEM containing 10% FBS and 1% Pen-Strep and incubated overnight at 37° C. with 5% CO2. Cells were washed and incubated with DAPI (1:10,000) for 10 minutes, and then incubated in YO-PRO-3 dye. Microglia were identified from mixed adult neuronal-glia culture by endogenous expression of eYFP. Fluorescence of individual eYFP positive microglia was recorded for a 5 minute baseline period and then for 30 minutes post BzATP stimulation (300 μM). Fluorescent emission at 30 minutes was calculated and as percent change from baseline.
# [3] = target: T1, Panx1; format: cell-based; conditions: for ATP release: morphine-treated cultured microglia stimulated with naloxone
# Experimental: as §3
# ATP level were detected using bioluminescence by combining samples with recombinant firefly luciferase and its substrate D-luciferin (ATP Determination Kit, Life Technologies). The ATPase inhibitor (ARL67156, 1 μM, Sigma) was added to the ECS or ACSF to decrease breakdown of ATP, and samples were incubated in medium for 30 minutes prior to naloxone stimulation to reduce mechanically-induced ATP release. Samples were stimulated with naloxone (10 μM) for 30 minutes, at which point the supernatant was collected. Samples were read immediately after collection using a FilterMax F5 plate reader at 28° C. For experiments for BV-2 microglial cultures, cells were incubated in ^10panx (10 μM), ^scrpanx (10 μM), probenecid (1 mM), mefloquine (40 μM) or ECS for 10 minutes prior to naloxone stimulation. Final ATP measurement was expressed relative to control samples (saline treated and ECS stimulated) from the same plate. For ATP release in spinal cord slices, tamoxifen or vehicle treated Cx3cr1::Panx1^flx/flx mice were perfused with ice-cold oxygenated sucrose-substituted ACSF, and the spinal cord isolated by hydraulic extrusion. The lumbar segment of the spinal cord was sliced into 300 μm sections, and incubated in oxygenated 37° C. ACSF for 1 hour. Spinal cord slices were then transferred to room temperature oxygenated ACSF and stimulated with naloxone. For quantification, ATP release was normalized to total protein of each sample.
# [4] = test system: morphine-dependent rats; assay: Naloxone-precipitated morphine withdrawal behaviours in rats; format: in vivo, rat; conditions: for morphine withdrawal: morphine-dependent rats
# Experimental: as §1, §2
# Both mefloquine and probenecid were reconstituted in β-cyclodextrin (Sigma), and control animals received systemic β-cyclodextrin.
# [5] = test system: Panx1; assay: Western blot of total Panx1 protein in rat primary microglia cultures; format: cell-based; conditions: morphine for 5-days
# Experimental: (§4) Rat spinal cord tissue was rapidly dissected and homogenized in RIPA buffer containing 20 mM TrisHCl (pH 7.5), 150 mM NaCl, and 0.5% Tween-20. Cultured microglia were harvested in 150 μL lysis buffer containing 50 mM TrisHCl, 150 mM NaCl, 10 mM EDTA, 0.1% Triton-X, and 5% Glycerol. Both RIPA and lysis buffers contained protease inhibitors (Sigma) and phosphatase inhibitors (GBiosciences). Total protein was measured using a BioRad RC DC Protein Assay Kit (BioRad) or Pierce BCA Protein Assay Kit (Thermo Scientific). Samples were heated at 95° C. for 5-min in loading buffer (350 mM Tris, 30% glycerol, 1.6% SDS, 1.2% bromophenol blue, 6% β-mercaptoethanol) then electrophoresed on a precast SDS gel (4-12% Tris-HCl, BioRad) and transferred onto a nitrocellulose membrane. […] Membranes were washed and incubated for 2 h at 20-25° C. in fluorophore-conjugated secondary antibodies (anti-rabbit and anti-mouse conjugated IR Dyes 1:5000, Mandel Scientific; or Fluorescent TrueBlot anti-rabbit IgG Dylight 1:1000, Rockland) then quantified by direct detection of secondary antibody fluorescence at 680 and 800 nm (LICOR Odyssey CLx). Band intensity was quantified using Image J, normalized to β-actin and expressed relative to control samples. […]
# [6] = test system: Panx1; assay: Western blot of total Panx1 protein in BV-2 microglial cell line; format: cell-based; conditions: morphine for 5-days
# Experimental: as §4
# [7] = test system: CD11b-positive cells in the lumbar spinal cords; conditions: mouse
# Experimental: Mice with microglial specific deletion of Panx1 were generated using a Cre-loxP system. […] Progeny genotype was screened using PCR, and homozygous Panx1^flx/flx and Cx3cr1-cre mice were bred and backcrossed for 8 generations to yield the conditional Cx3cr1::Panx1^flx/flx knock-out mice. To induce Cre recombination, mice were injected intraperitoneally with 1 mg per day tamoxifen (Sigma) for 5 days. Wild-type mice were littermate mice that received vehicle injections (sunflower oil with 10% ethanol) for 5 days, while tamoxifen-related effects were controlled for using Panx1^flx/flx littermate mice that received 5 days of tamoxifen injections.
# T1 sequence (Q9JIP4 whole entry): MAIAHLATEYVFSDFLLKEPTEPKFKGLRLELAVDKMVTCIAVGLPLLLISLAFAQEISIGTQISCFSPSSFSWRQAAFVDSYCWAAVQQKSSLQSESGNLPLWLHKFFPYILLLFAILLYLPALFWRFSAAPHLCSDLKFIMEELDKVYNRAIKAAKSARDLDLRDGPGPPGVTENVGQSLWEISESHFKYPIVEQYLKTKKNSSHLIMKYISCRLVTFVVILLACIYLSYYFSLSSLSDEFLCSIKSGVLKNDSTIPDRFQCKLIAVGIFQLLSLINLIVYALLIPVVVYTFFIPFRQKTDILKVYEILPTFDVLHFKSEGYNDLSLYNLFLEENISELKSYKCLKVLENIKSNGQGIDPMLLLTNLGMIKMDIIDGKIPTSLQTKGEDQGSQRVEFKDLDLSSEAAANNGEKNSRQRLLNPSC
compound,measurement,setting,value
CCN(CC)c1ncnc2c1ncn2[C@@H]1O[C@H](COP(=O)(O)OP(=O)(O)C(Br)(Br)P(=O)(O)O)[C@@H](O)[C@H]1O [ARL67156],morphine withdrawal,[1]; intrathecal 10 nmoles,exacerbated
Nc1ncnc2c1ncn2[C@@H]1O[C@H](COP(=O)(O)OP(=O)(O)OP(O)(O)=S)[C@@H](O)[C@H]1O [ATPγS],withdrawal behaviors,"[1]; morphine-treated Panx1-deficient mice, intrathecal 100 μM together with naloxone challenge",restored a spectrum of withdrawal behaviors
same,withdrawal behaviors,"[1]; saline-treated Panx1-deficient mice, intrathecal 100 μM",not observed
OC(c1cc(C(F)(F)F)nc2c(C(F)(F)F)cccc12)C1CCCCN1 (stereo not shown) [mefloquine],naloxone potentiation of Panx1 activation (YO-PRO-3 dye uptake),[2],blocked
same,ATP release,[3]; mefloquine 40 μM,suppressed
same,morphine withdrawal,[4]; systemic 45 mg/kg i.p. 1-hour prior to naloxone challenge,significantly ameliorated
CN1CC[C@]23c4c5ccc(O)c4O[C@H]2[C@@H](O)C=C[C@H]3[C@H]1C5 [morphine],total Panx1 protein levels,[5],marked increase
same,total Panx1 protein levels,[6],marked increase
C=CCN1CC[C@]23c4c5ccc(O)c4O[C@H]2C(=O)CC[C@@]3(O)[C@H]1C5 [naloxone],BzATP-evoked YO-PRO-1 uptake,[2],further potentiated
same,ATP in microglial supernatant,"[3]; naloxone applied to microglia in culture (10 μM, 30 minutes)",evoked the release of ATP
CCCN(CCC)S(=O)(=O)c1ccc(C(=O)O)cc1 [probenecid],naloxone potentiation of Panx1 activation (YO-PRO-3 dye uptake),[2],blocked
same,ATP release,[3]; probenecid 1 mM,suppressed
same,morphine withdrawal,[4]; systemic 50 mg/kg i.p. 1-hour prior to naloxone challenge,significantly ameliorated
CC/C(=C(\c1ccccc1)c1ccc(OCCN(C)C)cc1)c1ccccc1 [tamoxifen],recombination in Cre^ER reporter eYFP / CD11b-positive cells,[7],95±3.1%
same,morphine withdrawal responses,[1]; tamoxifen given to Panx1^loxp/loxp mice without inducible Cre-recombinase,does not affect morphine withdrawal
FSVYWAQADR (scrPanx) [^scrpanx],BzATP-evoked YO-PRO-1 uptake,[2],unaffected
WRQAAFVDSY (10panx) [^10panx],BzATP-evoked YO-PRO-1 uptake,[2],blocked
same,naloxone-evoked release of ATP,"[3]; cultured microglia, ^10panx 10 μM for 10 minutes prior to naloxone",blocked
same,withdrawal behaviours,"[4]; rats after 5-days of morphine, intrathecal 10 μg, 60-minutes prior to naloxone challenge",significantly attenuated
same,naloxone-precipitated morphine withdrawal,"[1]; Panx1-expressing mice, intrathecal 10 μg before naloxone challenge",significantly attenuated
same,naloxone-precipitated morphine withdrawal,"[1]; mice lacking microglial Panx1, intrathecal 10 μg",did not further reduce withdrawal
apyrase,morphine withdrawal,[1]; intrathecal 10 units,striking reduction in withdrawal
